Assay results taken from publication PMC8126888 (RSC Medicinal Chemistry, 2020).
Where two headings read alike, the source gives them in different places.

Columns and labels:
[1] = system: Trypanosoma cruzi, Tulahuen CL2, beta-galactosidase strain; experiment: microbe, parasite or virus in culture; conditions: MRC5, read-out: T. cruzi Tulahuen C4 (LacZ) IC50 (uM)
in vitro [2] = conditions: human
in vitro [3] = conditions: human, HFF-1 cells
in vitro [4] = conditions: PAMPA
physchem = conditions: HPLC, Ascentis Express RP Amide column, pH 7.4, eLogD, experimental
in vitro [5] = conditions: human, microsomes, pH 7.4, HLM CLint (uL/min/mg), human liver microsomes
[6] = system: primary peritoneal mouse macrophages (PMM); experiment: cells; conditions: Macrophage, read-out: PMM IC50 (uM)
in vitro [7] = conditions: mouse, microsomes, pH 7.4, MLM CLint (uL/min/mg), mouse liver microsomes
in vitro [8] = conditions: human, HepG2 cells
[9] = system: Leishmania infantum MHOM/MA(BE)/67/ITMAP263 intracellular amastigotes; experiment: microbe, parasite or virus in culture; conditions: Macrophage, in Mus musculus
[10] = read-out: L. Inf. pIC50, from L. infantum intracellular amastigote IC50 (converted)
[11] = read-out: L. infantum MHOM/MA(BE)/67/ITMAP263 intracellular amastigotes IC50 (uM), intracellular amastigotes

| Compound | IC50 [1] [µM] | CC50 at 3 days (in vitro [2]) [µM] | CC50 (in vitro [3]) [µM] | Papp (in vitro [4]) [×10⁻⁶ cm/s] | chromatographic logD (physchem) | microsomal CLint at 0.5 μM (in vitro [5]) [µL/min/mg] | IC50 [6] [µM] | microsomal CLint at 0.5 μM (in vitro [7]) [µL/min/mg] | CC50 (in vitro [8]) [µM] | IC50 [9, 10] [µM] | IC50 [9, 11] [µM] |
| --- | --- | --- | --- | --- | --- | --- | --- | --- | --- | --- | --- |
| COc1ccc(OC)c(S(=O)(=O)N(Cc2ccc(F)cc2)C2CCOCC2)c1 [DNDI0003388086] | 45 | > 64 | > 64 | 31.9 | 3.7 | 49 | > 64 | 599 | > 64 | > 64 | > 64 |
| COc1ccc(C(=O)N2CCOCC2)cc1S(=O)(=O)N(C)Cc1ccc(F)cc1 [DNDI0003389126] | 41.4 | > 64 | > 64 | 16.6 | 2.7 | 70 | > 64 | 94 | > 64 | 57.5 | 57 |
| COc1ccc(Cl)cc1S(=O)(=O)N(Cc1ccccc1)CC(O)c1ccc(F)cc1 (stereo not shown) [DNDI0003389316] | 17.8 | 23.5 | 4.75 | 4 | 3.1 | 298 | > 64 | 147 | 51.5 | 12 | 12 |
| COCCN(Cc1ccccc1)S(=O)(=O)c1cc(C(=O)NC2COC2)ccc1OC [DNDI0003392129] | > 64 | > 64 |  | 4.72 | 2.7 | 39 | > 64 | 114 |  | 15.5 | 15.5 |
| CNC(=O)c1ccc(OC)c(S(=O)(=O)N(CCOC)Cc2ccccc2)c1 [DNDI0003392128] | > 64 | > 64 |  | 7.61 | 2.7 | 23 | > 64 | 393 |  | 28.2 | 28.1 |
| COc1ccc(Cl)cc1S(=O)(=O)N(Cc1ccccc1)C(CO)c1ccc(F)cc1 (stereo not shown) [DNDI0003388149] | 15.8 | 21.6 | 1.25 | 3.4 |  | 18 | > 64 | 38 | 15.7 | 1.7 | 1.69 |
| O=[N+]([O-])c1ccc(Cl)cc1S(=O)(=O)N(Cc1ccccc1)Cc1ccc(F)cc1 [DNDI0003389123] | 26.4 | > 64 | > 64 |  | 5.1 |  | > 64 |  | > 64 | > 64 | > 64 |
| COCCN(Cc1ccc(F)cc1)S(=O)(=O)c1cc(C(=O)N2CCOCC2)ccc1OC [DNDI0003392125] | > 64 | 22.7 |  | 15.4 |  | 28 | > 64 | 60 |  | 22.4 | 22.5 |
| COc1ccc(OC)c(S(=O)(=O)N(Cc2ccc(F)cc2)Cc2cnc(OC)nc2OC)c1 [DNDI0003389321] | 27.8 | > 64 | > 64 | 15.2 |  | 270 | > 64 | 861 | > 64 | 53.7 | 53.8 |
| COc1ccc(C(=O)NC2COC2)cc1S(=O)(=O)N(Cc1ccc(F)cc1)Cc1ccc(F)cc1 [DNDI0003371174] | 38.5 | > 64 | > 64 | 4.92 |  | 178 | > 64 | 395 | > 64 | 0.794 | 0.79 |
| O=S1(=O)c2cc(F)ccc2OCC(c2ccc(F)cc2)N1Cc1ccccc1 (stereo not shown) [DNDI0003389122] | > 64 | > 64 | 12.1 |  | 4.9 |  | 16 |  | > 64 | 10.2 | 10.2 |
| N#Cc1ccccc1S(=O)(=O)N(Cc1ccccc1)Cc1ccccc1 [DNDI0003389641] | 18.4 | > 64 | 1.28 | 1.66 | 4.2 | 577 | > 64 |  | > 64 | 11.2 | 11.3 |
| COc1ccc(OC)c(S(=O)(=O)N(Cc2ccc(F)cc2)Cc2ccnn2C)c1 [DNDI0003389129] | 21.1 | > 64 | 26.3 | 35.6 |  | 207 | 45.2 | 1090 | > 64 | 5.13 | 5.19 |
| COc1ccc(C(=O)N2CCOCC2)cc1S(=O)(=O)N(Cc1ccc(F)cc1)CC(C)C [DNDI0003389127] | 39.1 | > 64 | 8.25 | 17.7 |  | 543 | > 64 | 355 | > 64 | 6.92 | 6.86 |
| O=S(=O)(c1cc(F)ccc1F)N(Cc1ccccc1)C(CO)c1ccc(F)cc1 (stereo not shown) [DNDI0003378486] | 13.7 | 21.2 | 1.67 |  |  |  | > 64 |  | 24.4 | 35.5 | 35.5 |
| COc1ccc(C#N)cc1S(=O)(=O)N(Cc1ccc(F)cc1)C1CCOCC1 [DNDI0003388084] | 53.1 | > 64 | 44.1 | 12.7 |  | 194 | > 64 | 253 | > 64 | > 64 | > 64 |
| COc1ccc(OC)c(S(=O)(=O)N(Cc2ccc(F)cc2)Cc2ccc(C#N)cc2)c1 [DNDI0003388088] | 19 | > 64 | 51.9 | 3.57 | 4.1 | 87 | > 64 |  | 36.2 | 18.6 | 18.6 |
| COc1ccc(CN(Cc2ccc(F)cc2)S(=O)(=O)c2cc(OC)ccc2OC)cc1 [DNDI0003388087] | 9.04 | 5.42 | 2.44 |  | 3.5 | 80 | > 64 | 19 | 33.2 | 11.2 | 11.3 |
